# Test results taken from PubChem BioAssay (NCI).
#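 At the GI50, growth is halved. TGI is the concentration that stops growth completely.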
# Legend:
# Assay in all cases: growth of human tumour cells (NCI), 384-well format
# NCI-H23 lung = tested on: NCI-H23 lung
# NCI-H322M lung = tested on: NCI-H322M lung
# NCI-H460 NSCLC = tested on: NCI-H460 NSCLC
# NCI-H522 lung = tested on: NCI-H522 lung
# NCI/ADR-RES ovarian = tested on: NCI/ADR-RES ovarian
# OVCAR-3 ovarian = tested on: OVCAR-3 ovarian
# OVCAR-4 ovarian = tested on: OVCAR-4 ovarian
# OVCAR-5 ovarian = tested on: OVCAR-5 ovarian
# PC-3 prostate = tested on: PC-3 prostate
# RPMI-8226 leukemia = tested on: RPMI-8226 leukemia
# RXF 393 renal = tested on: RXF 393 renal
# SF-268 CNS = tested on: SF-268 CNS
# SF-295 CNS = tested on: SF-295 CNS
# SF-539 CNS = tested on: SF-539 CNS
# SK-MEL-2 melanoma = tested on: SK-MEL-2 melanoma
# SK-MEL-28 melanoma = tested on: SK-MEL-28 melanoma
# SK-MEL-5 melanoma = tested on: SK-MEL-5 melanoma
# SK-OV-3 ovarian = tested on: SK-OV-3 ovarian
# SN12C renal = tested on: SN12C renal
# SNB-19 CNS = tested on: SNB-19 CNS
# SNB-75 CNS = tested on: SNB-75 CNS
# SR leukemia = tested on: SR leukemia
# SW-620 colon = tested on: SW-620 colon
# T-47D breast = tested on: T-47D breast
# TK-10 renal = tested on: TK-10 renal
# U251 glioblastoma = tested on: U251 glioblastoma
# UACC-257 melanoma = tested on: UACC-257 melanoma
# UACC-62 melanoma = tested on: UACC-62 melanoma
# UO-31 renal = tested on: UO-31 renal
smiles,measurement,setting,value
COc1ccc(C(=O)CC2(O)C(=O)Nc3c(Cl)ccc(Cl)c32)cc1 (stereo not drawn),GI50,NCI-H23 lung,1970 nM
same,TGI,NCI-H23 lung,12.1 µM
same,GI50,NCI-H322M lung,5.82 µM
same,TGI,NCI-H322M lung,> 100 µM
same,GI50,NCI-H460 NSCLC,477 nM
same,TGI,NCI-H460 NSCLC,2480 nM
same,GI50,NCI-H522 lung,264 nM
same,TGI,NCI-H522 lung,587 nM
same,GI50,NCI/ADR-RES ovarian,346 nM
same,TGI,NCI/ADR-RES ovarian,1360 nM
same,GI50,OVCAR-3 ovarian,382 nM
same,TGI,OVCAR-3 ovarian,1250 nM
same,GI50,OVCAR-4 ovarian,8.8 µM
same,TGI,OVCAR-4 ovarian,85.6 µM
same,GI50,OVCAR-5 ovarian,9.83 µM
same,TGI,OVCAR-5 ovarian,> 100 µM
same,GI50,PC-3 prostate,2270 nM
same,TGI,PC-3 prostate,> 100 µM
same,GI50,RPMI-8226 leukemia,1170 nM
same,TGI,RPMI-8226 leukemia,2560 nM
same,GI50,RXF 393 renal,960 nM
same,TGI,RXF 393 renal,5.08 µM
same,GI50,SF-268 CNS,10.6 µM
same,TGI,SF-268 CNS,31.3 µM
same,GI50,SF-295 CNS,1550 nM
same,TGI,SF-295 CNS,8.41 µM
same,GI50,SF-539 CNS,1680 nM
same,TGI,SF-539 CNS,5.35 µM
same,GI50,SK-MEL-2 melanoma,864 nM
same,TGI,SK-MEL-2 melanoma,3.02 µM
same,GI50,SK-MEL-28 melanoma,15.9 µM
same,TGI,SK-MEL-28 melanoma,> 100 µM
same,GI50,SK-MEL-5 melanoma,663 nM
same,TGI,SK-MEL-5 melanoma,5.85 µM
same,GI50,SK-OV-3 ovarian,2560 nM
same,TGI,SK-OV-3 ovarian,95.6 µM
same,GI50,SN12C renal,3.28 µM
same,TGI,SN12C renal,20.8 µM
same,GI50,SNB-19 CNS,2320 nM
same,TGI,SNB-19 CNS,32.8 µM
same,GI50,SNB-75 CNS,2260 nM
same,TGI,SNB-75 CNS,15.8 µM
same,GI50,SR leukemia,113 nM
same,TGI,SR leukemia,256 nM
same,GI50,SW-620 colon,452 nM
same,TGI,SW-620 colon,> 100 µM
same,GI50,T-47D breast,9.17 µM
same,TGI,T-47D breast,52 µM
same,GI50,TK-10 renal,1360 nM
same,TGI,TK-10 renal,> 100 µM
same,GI50,U251 glioblastoma,1130 nM
same,TGI,U251 glioblastoma,12.5 µM
same,GI50,UACC-257 melanoma,6.69 µM
same,TGI,UACC-257 melanoma,21.6 µM
same,GI50,UACC-62 melanoma,380 nM
same,TGI,UACC-62 melanoma,4.27 µM
same,GI50,UO-31 renal,8.45 µM
same,TGI,UO-31 renal,> 100 µM
